According to US20100279942A1, “METHODS FOR TREATING MOTOR NEURON DISEASE” (priority 2004, published 2010):
Ends that are not written are not given here.

Assays:
[1] = tested on: NSC34 cells transformed with SOD1 mutant (A4T-SOD1, G85R-SOD1, G93R-SOD1) genes; assay: Neuronal cell death test, Trypan blue exclusion assay, NSC34 cells transformed with SOD1 mutant genes; assay type: cell-based, mouse
Procedure: NSC34 cell, the hybrid cell of primary cultured, motor neuron-system embryonic mouse spinal cord cell with mouse neuroblastoma NTG18 cell, was cultured in […] medium containing 10% FBS and antibiotics (Cashman N R, et al., 1992, Dev Dyn 194: 209-221; and Durham H D, et al, 1993, Neurotoxicology 14: 387-395).
The NSC34 cells (7×10^4 cells/well, 6-well plate, 12 to 16-hour culture in DMEM (10% FBS) medium) were transformed with wild-type or SOD1 mutant (A4T, G85R, and G93R) genes by lipofection (0.5 μg of each SOD1 gene; 1 μl of LipofectAMINE; 2 μl of PLUS Reagent) under serum-free conditions for 3 hours and cultured for 21 hours in DMEM (10% FBS) and after 48 hours in DMED supplemented with N2 supplement (Invitrogen). After 72 hours of the transformation, cell mortality was measured by Trypan blue exclusion assay in the same way as above.
F11 or NSC34 cells were transformed with pEF-BOS, A4T-SOD1, G85R-SOD1, or G93R-SOD1 cDNA in the presence of increasing concentrations (10 aM, 1 fM, 100 fM, 10 pM, 1 nM, and 100 nM) of ADNF. After 72 hours, cell mortality was measured by Trypan blue exclusion assay.

[2] = tested on: neuronal cell death caused by amyloid β; settings: cited from earlier work

SALLRSIPA [ADNF, short peptide consisting of nine amino acid residues]
inhibition of neuronal cell death caused by SOD1 mutant genes ([1]; 100 fM ADNF, three SOD1 mutant genes, 72 hours): can completely inhibit neuronal cell death
inhibitory effect on neuronal cell death at high concentration ([1]; ADNF at concentrations equal to or above 10 nM): not decreased
neuroprotective action at high concentration ([2]; ADNF at or above 10 nM, Brenneman et al.): lose its neuroprotective action
inhibitory activity against cell death caused by amyloid β toxicity- or APP mutant gene-induced disorders ([2]; ADNF at or above nM levels, Hashimoto et al. 2001): reduced inhibitory activity
